According to US4760147A, “Optically active, substituted 1,4-dihydropyridines and their use as medicaments” (Cassella Aktiengesellschaft, priority 1984, dated 1988):

The molecules below were run on spiral strips of the arteria pulmonalis of guineapigs (assay: calcium-antagonistic action: relaxing effect on potassium-depolarised, CaCl2-contracted spiral strips of the arteria pulmonalis (modified method of Godfraind and Kaba and of Schumann et al)). Conditions: depolarised with 40 mmol potassium; contraction triggered by 0.5 mmol CaCl2; mean value of 4 to 6 vascular strips; read-out: IC50 (concentration which inhibits the contraction by 50%).
Type: cell-based
Procedure: In these experiments, spiral strips of the arteria pulmonalis of guineapigs are depolarised with 40 mmol of potassium, after equilibration in calcium-freeTyrode's solution. The addition of 0.5 mmol of CaCl2 then triggers off contraction. The relaxing effect of the test substance is determined by cumulative addition in 1/2 log 10 graduated concentrations. The concentration of the test substance which inhibits the contraction by 50% (=IC50, mole/l) is determined from the concentration/effect curve (abscissa: -log mole/l of test substance, ordinate: % inhibition of the maximum contraction, mean value of 4 to 6 vascular strips).
Work on CC1=C(C(=O)OC(C)C)C(c2cccc(Cl)c2Cl)C(c2nnco2)=C(C)N1 (single isomer, unassigned) [Example 1e, Isopropyl (-)-1,4-dihydro-2,6-dimethyl-3-(1,3,4-oxadiazol-2-yl)-4-(2,3-dichlorophenyl)-pyridine-5-carboxylate] yielded an IC50 of 40 pM. For COC(=O)C1=C(C)NC(C)=C(c2nnco2)C1c1cccc(Cl)c1Cl (single isomer, unassigned) [Example 2, Methyl (-)-1,4-dihydro-2,6-dimethyl-3-(1,3,4-oxadiazol-2-yl)-4-(2,3-dichlorophenyl)-pyridine-5-carboxylate], the IC50 was 200 pM. For CCOC(=O)C1=C(C)NC(C)=C(c2nnco2)C1c1cccc(Cl)c1Cl (single isomer, unassigned) [Example 3, Ethyl (-)-1,4-dihydro-2,6-dimethyl-3-(1,3,4-oxadiazol-2-yl)-4-(2,3-dichlorophenyl)-pyridine-5-carboxylate], the IC50 was 70 pM. COCCOC(=O)C1=C(C)NC(C)=C(c2nnco2)C1c1cccc(Cl)c1Cl (single isomer, unassigned) [Example 4, Methoxyethyl (-)-1,4-dihydro-2,6-dimethyl-3-(1,3,4-oxadiazol-2-yl)-4-(2,3-dichlorophenyl)-pyridine-5-carboxylate] was tested, and the IC50 was 300 pM. In the case of CCOC(=O)[C@@H](C)OC(=O)C1=C(C)NC(C)=C(c2nnco2)C1c1cccc(Cl)c1Cl (single isomer, unassigned) [Example 8c], the IC50 is reported as 40 pM. For CC1=C(C(=O)OCCOC(C)C)C(c2cccc(Cl)c2Cl)C(c2nnco2)=C(C)N1 (single isomer, unassigned) [Example 16, 2-isopropoxy-ethyl (-)-1,4-dihydro-2,6-dimethyl-3-(1,3,4-oxadiazol-2-yl)-4-(2,3-dichlorophenyl)-pyridine-5-carboxylate], the IC50 was 100 pM.
